Test results from paper PMC8881610 (Nature Communications, 2022).
Residue numbers refer to the chain shown, from its start.

How the values were obtained:
Test in all cases: Whole-cell binding assay, competition with 125I-GIP1-42
Design in all cases: acylated tirzepatide to the full-length or modified; Flag; expressed in transfected cells
GIPR [1] = target: T1, GIPR (Homo sapiens, UniProt P48546, D191A/Q138A/R196A); details: GIPR Q138A/D191A/R196A, CHO-K1
T1 sequence (P48546 22-466 Q138A/D191A/R196A): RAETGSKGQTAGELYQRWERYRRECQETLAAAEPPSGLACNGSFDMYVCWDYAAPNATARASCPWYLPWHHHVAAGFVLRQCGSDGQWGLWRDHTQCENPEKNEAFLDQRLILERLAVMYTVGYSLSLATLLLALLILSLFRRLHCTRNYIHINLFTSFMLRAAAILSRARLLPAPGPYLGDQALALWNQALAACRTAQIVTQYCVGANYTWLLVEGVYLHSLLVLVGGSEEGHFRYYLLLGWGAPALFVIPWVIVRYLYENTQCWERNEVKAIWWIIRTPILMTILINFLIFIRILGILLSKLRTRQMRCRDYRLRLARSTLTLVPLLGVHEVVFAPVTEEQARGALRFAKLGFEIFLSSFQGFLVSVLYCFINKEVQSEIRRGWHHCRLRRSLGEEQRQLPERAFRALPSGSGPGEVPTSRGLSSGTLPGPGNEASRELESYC
Procedure, shortened: (§1)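 Transiently transfected CHO-K1 cells expressing WT or mutant GIPR were washed in F-12 with 0.1% BSA or 0.1% casein and 33 mM HEPES, then incubated 2 h at 37 °C. After ice-cold PBS washes, cells were lysed and bound radioactivity counted (CPM).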

GIPR [2] = target: T2, GIPR (Homo sapiens, UniProt P48546, Q285A); details: GIPR Q285A, CHO-K1
T2 sequence (P48546 22-466 Q285A): T1 sequence (P48546 22-466 Q138A/D191A/R196A) with A117Q, A170D, A175R, Q264A
Procedure, shortened: as §1

GIPR [3] = target: T3, GIPR (Homo sapiens, UniProt P48546, W209A); details: GIPR W209A, CHO-K1
T3 sequence (P48546 22-466 W209A): T1 sequence (P48546 22-466 Q138A/D191A/R196A) with A117Q, A170D, A175R, W188A
Procedure, shortened: as §1

[4] = read-out: binding pIC50 (converted)

CCCCCCCCCCCCCCCC(=O)N[C@@H](CCC(=O)NCCCC[C@H](NC(=O)[C@H](CC(=O)O)NC(=O)[C@H](CO)NC(=O)[C@@H](NC(=O)[C@H](Cc1ccccc1)NC(=O)[C@@H](NC(=O)CNC(=O)[C@H](CCC(N)=O)NC(=O)C(C)(C)NC(=O)[C@@H](N)Cc1c[nH]cn1)[C@@H](C)O)[C@@H](C)O)C(=O)N[C@@H](CO)C(=O)N[C@@H](CCCCN)C(=O)N[C@@H](Cc1ccc(O)cc1)C(=O)N[C@@H](CC(C)C)C(=O)N[C@@H](CC(=O)O)C(=O)N[C@@H](CCC(=O)O)C(=O)N[C@@H](CCCNC(=N)N)C(=O)N[C@@H](C)C(=O)N[C@@H](C)C(=O)N[C@@H](CCC(N)=O)C(=O)N[C@@H](CC(=O)O)C(=O)N[C@@H](Cc1ccccc1)C(=O)N[C@H](C(=O)N[C@@H](CCC(N)=O)C(=O)N[C@@H](Cc1c[nH]c2ccccc12)C(=O)N[C@@H](CC(C)C)C(=O)N[C@@H](CC(C)C)C(=O)N[C@@H](CC(=O)O)C(=O)NCC(=O)NCC(=O)N1CCC[C@H]1C(=O)N[C@@H](CO)C(=O)N[C@@H](CO)C(=O)NCC(=O)N[C@@H](C)C(=O)N1CCC[C@H]1C(=O)N1CCC[C@H]1C(=O)N1CCC[C@H]1C(=O)N[C@@H](CO)C(N)=O)C(C)C)C(=O)O [Peptide 20]
binding Span (GIPR [1]): 1.03 ± 0.94 % WT
IC50 (GIPR [1]; [4]): 2.4 nM
binding Span (GIPR [2]): 108.98 ± 3.60 % WT
IC50 (GIPR [2]; [4]): 13.5 nM
binding Span (GIPR [3]): 96.83 ± 6.13 % WT
IC50 (GIPR [3]; [4]): 20 nM
